These results are taken from patent US11040981B2, “Pyrrolotriazine compounds and methods of inhibiting TAM kinases” (Syros Pharmaceuticals, Inc., priority 2017, dated 2021).

One assay concerns the target T1, FLT3 (Homo sapiens, UniProt P36888).
T1 sequence (P36888 27-993): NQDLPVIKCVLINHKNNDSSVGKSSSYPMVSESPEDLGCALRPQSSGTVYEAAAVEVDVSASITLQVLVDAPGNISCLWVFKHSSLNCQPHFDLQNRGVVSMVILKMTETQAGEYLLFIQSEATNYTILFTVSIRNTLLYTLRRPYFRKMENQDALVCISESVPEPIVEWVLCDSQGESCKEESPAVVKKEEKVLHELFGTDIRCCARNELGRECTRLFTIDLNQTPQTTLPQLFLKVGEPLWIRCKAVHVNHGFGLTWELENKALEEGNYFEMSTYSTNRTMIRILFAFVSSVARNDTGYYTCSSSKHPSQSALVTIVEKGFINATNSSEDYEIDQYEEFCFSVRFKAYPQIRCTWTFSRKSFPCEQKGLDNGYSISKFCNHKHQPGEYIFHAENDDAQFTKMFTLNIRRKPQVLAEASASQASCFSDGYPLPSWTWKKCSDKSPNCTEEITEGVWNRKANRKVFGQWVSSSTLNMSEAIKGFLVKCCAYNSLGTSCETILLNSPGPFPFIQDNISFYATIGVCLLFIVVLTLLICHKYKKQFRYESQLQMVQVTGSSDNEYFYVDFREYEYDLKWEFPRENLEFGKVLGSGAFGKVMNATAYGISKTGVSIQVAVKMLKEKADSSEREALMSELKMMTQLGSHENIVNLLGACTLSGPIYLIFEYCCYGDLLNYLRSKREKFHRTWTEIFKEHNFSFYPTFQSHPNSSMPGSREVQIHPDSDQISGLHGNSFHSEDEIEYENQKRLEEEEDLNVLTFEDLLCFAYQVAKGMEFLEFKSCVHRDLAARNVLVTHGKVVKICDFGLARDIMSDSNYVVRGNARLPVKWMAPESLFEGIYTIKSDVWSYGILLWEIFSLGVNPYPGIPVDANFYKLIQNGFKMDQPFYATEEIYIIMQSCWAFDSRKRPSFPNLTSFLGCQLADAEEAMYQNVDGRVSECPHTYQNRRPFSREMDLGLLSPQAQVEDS
Kind of assay: TR-FRET kinase activity assay, FLT3. Type of assay: biochemical. As to conditions: ATP at Km, 60 minutes. The procedure, abridged: (§1)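 IC50 reflects the drop in TR-FRET between Eu anti-phosphotyrosine antibody and labelled peptide after a 60-minute room-temperature reaction. Buffer was 50 mM HEPES pH 7.5 with 10 mM MgCl2, 1 mM EGTA, 0.01% Brij 35 and 1 mM DTT, with ATP at Km per enzyme and EDTA quench.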
In general terms: Time-resolved FRET reads energy transfer from a long-lived donor to a nearby acceptor.

The target in another assay is T2, TYRO3 (Homo sapiens, UniProt Q06418).
T2 sequence (Q06418 41-890): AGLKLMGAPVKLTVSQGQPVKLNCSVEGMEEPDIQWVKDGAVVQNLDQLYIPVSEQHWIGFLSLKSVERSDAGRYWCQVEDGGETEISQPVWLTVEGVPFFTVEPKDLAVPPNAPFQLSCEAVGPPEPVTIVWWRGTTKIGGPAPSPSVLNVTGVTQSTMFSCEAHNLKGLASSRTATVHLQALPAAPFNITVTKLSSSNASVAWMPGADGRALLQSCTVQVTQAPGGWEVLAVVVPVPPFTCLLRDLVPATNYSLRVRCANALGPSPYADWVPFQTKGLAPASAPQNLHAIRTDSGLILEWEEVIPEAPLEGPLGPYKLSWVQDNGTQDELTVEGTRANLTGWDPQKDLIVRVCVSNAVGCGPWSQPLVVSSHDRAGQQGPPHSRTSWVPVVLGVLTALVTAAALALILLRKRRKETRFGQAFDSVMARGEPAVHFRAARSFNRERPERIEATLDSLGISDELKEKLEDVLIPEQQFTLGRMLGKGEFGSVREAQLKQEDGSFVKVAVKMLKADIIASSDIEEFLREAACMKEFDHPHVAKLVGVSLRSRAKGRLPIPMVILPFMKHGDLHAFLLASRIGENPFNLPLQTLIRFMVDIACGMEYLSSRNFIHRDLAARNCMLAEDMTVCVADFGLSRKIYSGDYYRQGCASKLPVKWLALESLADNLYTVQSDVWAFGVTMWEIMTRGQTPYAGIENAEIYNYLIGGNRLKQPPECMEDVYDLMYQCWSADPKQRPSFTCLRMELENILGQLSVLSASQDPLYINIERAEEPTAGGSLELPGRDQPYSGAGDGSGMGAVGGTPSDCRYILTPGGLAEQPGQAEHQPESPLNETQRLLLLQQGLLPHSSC
Briefly: TR-FRET kinase activity assay, TYRO3. As to conditions: ATP at Km, 60 minutes. It is filed as biochemical. The procedure, abridged:
as §1

The structures appear in SMILES notation. Counter-ions that a name gives are not always drawn.

Take `COC[C@H](C)Nc1ncc2c(-c3ccnc(C)c3)cc(C3CCC4(CC3)NC(=O)NC4=O)n2n1` (mixture of isomers) [Compound 325, (S)-8-(2-((1-methoxypropan-2-yl)amino)-5-(2-methylpyridin-4-yl)pyrrolo[2,1-f][1,2,4]triazin-7-yl)-1,3-diazaspiro[4.5]decane-2,4-dione]: the IC50 was 1000 to 10000 nM on FLT3 and at most 100 nM against TYRO3.
Take `CCCCC[C@H](C)Nc1ncc2c(C3=CC[C@@H](C(=O)N4CCOCC4)CC3)cc([C@H]3CC[C@H](O)CC3)n2n1` [Compound 113]: the figures for the IC50 at FLT3 and against TYRO3 were 100 to 1000 nM and at most 100 nM, respectively.
Turning to `CCCCC[C@H](C)Nc1ncc2c(N3CCNCC3)cc([C@H]3CC[C@H](O)CC3)n2n1` [Compound 114], the IC50 against FLT3 is 100 to 1000 nM; against TYRO3, at most 100 nM.
The matching figures for `CCCCC[C@H](C)Nc1ncc2c(N3CCC(N(C)C)CC3)cc(C3CCC(O)CC3)n2n1.Cl` (stereo partly drawn) [Compound 115, 4-[5-[4-(dimethylamino)-1-piperidyl]-2-[[(1S)-1-methylhexyl]amino]pyrrolo[2,1-f][1,2,4]triazin-7-yl]cyclohexanol hydrochloride]: 1000 to 10000 nM and 100 to 1000 nM.
For the compound `CCCCC[C@H](C)Nc1ncc2c(C3CCNCC3)cc([C@H]3CC[C@H](O)CC3)n2n1` [Compound 116, (1S,4r)-4-(2-((S)-heptan-2-ylamino)-5-(piperidin-4-yl)pyrrolo[2,1-f][1,2,4]triazin-7-yl)cyclohexanol hydrochloride], the values for the IC50 at FLT3 and against TYRO3 were 100 to 1000 nM and at most 100 nM, respectively.
In the case of `CCCCC[C@H](C)Nc1ncc2c(N3CCC(C(=O)O)CC3)cc([C@H]3CC[C@H](O)CC3)n2n1` [Compound 117], the results for the IC50 against FLT3 and at TYRO3 were 1000 to 10000 nM and 100 to 1000 nM, respectively.
On to `CC[C@H](C)Nc1ncc2c(-c3ccc(CN4CCN(C)CC4)cc3)cc([C@H]3CC[C@H](O)CC3)n2n1` [Compound 118], for which the IC50 against FLT3 and at TYRO3 was at most 100 nM throughout.
As for `CNS(=O)(=O)c1cncc(-c2cc([C@H]3CC[C@H](O)CC3)n3nc(N[C@@H](C)COC)ncc23)c1` [Compound 272], the IC50 is 100 to 1000 nM on FLT3 and at most 100 nM against TYRO3.
For `CC(CC(F)(F)F)Nc1ncc2c(-c3cncc(S(C)(=O)=O)c3)cc(C3CCC(O)CC3)n2n1` (stereo not shown) [Compound 273], the IC50 is 100 to 1000 nM at FLT3 and at most 100 nM against TYRO3.
Regarding `COCCn1cc(-c2cc([C@H]3CC[C@H](O)CC3)n3nc(N[C@@H](C)COC(F)F)ncc23)cn1` [Compound 274], the IC50 against FLT3 and against TYRO3 was at most 100 nM in each case.
`CNS(=O)(=O)c1cncc(-c2cc([C@H]3CC[C@H](O)CC3)n3nc(N[C@@H](C)COC(F)F)ncc23)c1` [Compound 275]: the results for the IC50 at FLT3 and on TYRO3 were 1000 to 10000 nM and at most 100 nM, respectively.
The matching figures for `C[C@@H](CC(F)(F)F)Nc1ncc2c(-c3cn[nH]c3)cc([C@H]3CC[C@H](O)CC3)n2n1` [Compound 276]: 100 to 1000 nM and at most 100 nM.
Turning to `COC[C@H](C)Nc1ncc2c(-c3cnn(Cc4nnc(C)o4)c3)cc([C@H]3CC[C@H](O)CC3)n2n1` [Compound 277], the IC50 against FLT3 and against TYRO3 was at most 100 nM each time.
Take `CNS(=O)(=O)c1cncc(-c2cc([C@H]3CC[C@H](O)CC3)n3nc(N[C@@H](C)CC(F)(F)F)ncc23)c1` [Compound 278]: the IC50 at FLT3 is 100 to 1000 nM; on TYRO3, at most 100 nM.
With `COC[C@H](C)Nc1ncc2c(-c3ccc(S(C)(=O)=O)nc3)cc([C@H]3CC[C@H](O)CC3)n2n1` [Compound 279], the IC50 is 100 to 1000 nM against FLT3 and at most 100 nM against TYRO3.
Consider `COC[C@H](C)Nc1ncc2c(-c3cnn(CCS(C)(=O)=O)c3)cc([C@H]3CC[C@H](O)CC3)n2n1` [Compound 280], for which the IC50 on FLT3 was 100 to 1000 nM; against TYRO3, at most 100 nM.
The matching figures for `COC[C@H](C)Nc1ncc2c(-c3cnn(Cc4ccnnc4)c3)cc([C@H]3CC[C@H](O)CC3)n2n1` [Compound 281]: at most 100 nM and at most 100 nM.
Turning to `COC[C@H](C)Nc1ncc2c(-c3cnn(C(C)(C)C(=O)N4CCOCC4)c3)cc([C@H]3CC[C@H](O)CC3)n2n1` [Compound 282], the IC50 is 100 to 1000 nM on FLT3 and at most 100 nM on TYRO3.
In the case of `COC[C@H](C)Nc1ncc2c(-c3cnn(C(C)(C)C(=O)N4CCC4)c3)cc([C@H]3CC[C@H](O)CC3)n2n1` [Compound 283], the figures for the IC50 against FLT3 and at TYRO3 were 1000 to 10000 nM and at most 100 nM, respectively.
As to `COC[C@H](C)Nc1ncc2c(-c3cnn(C(C)(C)C(=O)O)c3)cc([C@H]3CC[C@H](O)CC3)n2n1` [Compound 284], the results for the IC50 at FLT3 and against TYRO3 were 1000 to 10000 nM and at most 100 nM, respectively.
`COC[C@H](C)Nc1ncc2c(-c3cnn(Cc4noc(C)n4)c3)cc([C@H]3CC[C@H](O)CC3)n2n1` [Compound 285]: the IC50 is 100 to 1000 nM against FLT3 and at most 100 nM against TYRO3.
On the same counts, the results for `COC[C@H](C)Nc1ncc2c(-c3cnn(C4CN(C(C)=O)C4)c3)cc([C@H]3CC[C@H](O)CC3)n2n1` [Compound 286] are at most 100 nM and at most 100 nM.
Regarding `COC[C@H](C)Nc1ncc2c(-c3cnn(C4CC(S(C)(=O)=O)C4)c3)cc([C@H]3CC[C@H](O)CC3)n2n1` (stereo partly shown) [Compound 287], the IC50 against FLT3 and against TYRO3 was at most 100 nM throughout.
For the compound `C[C@@H](CC(F)(F)F)Nc1ncc2c(-c3cnn(CCS(C)(=O)=O)c3)cc([C@H]3CC[C@H](O)CC3)n2n1` [Compound 288], the IC50 against FLT3 and at TYRO3 was at most 100 nM in each case.
Regarding `C[C@@H](CC(F)(F)F)Nc1ncc2c(-c3cnn([C@@H]4CCOC4)c3)cc([C@H]3CC[C@H](O)CC3)n2n1` [Compound 289], the IC50 against FLT3 and against TYRO3 was at most 100 nM each time.
On to `C[C@@H](CC(F)(F)F)Nc1ncc2c(-c3cnn([C@H]4CCOC4)c3)cc([C@H]3CC[C@H](O)CC3)n2n1` [Compound 290], for which the IC50 at FLT3 and against TYRO3 was at most 100 nM each time.
Regarding `COC[C@H](C)Nc1ncc2c(-c3cnn(C4CN(CCC(F)(F)F)C4)c3)cc([C@H]3CC[C@H](O)CC3)n2n1` [Compound 291], the IC50 against FLT3 was 100 to 1000 nM; against TYRO3, at most 100 nM.
For `COC[C@H](C)Nc1ncc2c(-c3cnn(Cc4nc(C)no4)c3)cc([C@H]3CC[C@H](O)CC3)n2n1` [Compound 292], the figures for the IC50 on FLT3 and at TYRO3 were 100 to 1000 nM and at most 100 nM, respectively.
As to `COC[C@H](C)Nc1ncc2c(-c3cnn(C4CN(C(=O)C5COC5)C4)c3)cc([C@H]3CC[C@H](O)CC3)n2n1` [Compound 293], the values for the IC50 at FLT3 and against TYRO3 were 100 to 1000 nM and at most 100 nM, respectively.
On the same counts, the results for `COC[C@H](C)Nc1ncc2c(-c3cnn(C4CN(C(=O)C5(C(F)(F)F)CC5)C4)c3)cc([C@H]3CC[C@H](O)CC3)n2n1` [Compound 294] are at most 100 nM and at most 100 nM.
In the case of `CNC(=O)C(C)(C)n1cc(-c2cc([C@H]3CC[C@H](O)CC3)n3nc(N[C@@H](C)COC)ncc23)cn1` [Compound 295], the values for the IC50 at FLT3 and at TYRO3 were 1000 to 10000 nM and at most 100 nM, respectively.
Consider `Cc1nnc(Cn2cc(-c3cc([C@H]4CC[C@H](O)CC4)n4nc(N[C@@H](C)CC(F)(F)F)ncc34)cn2)o1` [Compound 296], for which the IC50 at FLT3 and at TYRO3 was at most 100 nM in each case.

For orientation: IC50 means the concentration at which inhibition is half-maximal. A high value points to lower potency.
